Article PMC12717099, “Peptidoglycan recruitment by a penicillin binding protein” (Nature Communications, 2025)

Experiments:
PBP5-S422A = assay: 1D 1H STD NMR of SP2 with PBP5-S422A; type: binding, Enterococcus faecium; conditions: for STD amplification factor, 2000: 2 s saturation
From the text: Total saturation time for STD measurements was 2 s.
Overlapped peaks were completely excluded from the analysis.

[1] = test system: E. faecium D344SRF pCWR624Δpbp5_pbp5_V3; assay: Disk diffusion assay, pbp5_V3; type: cell-based, Enterococcus faecium; conditions: strain pbp5_V3 (loop 625-631); 37 °C, 24 h; n=3
Protocol: (§1) The synthetic genes were purchased from GeneWiz (South Plainfield, NJ). The ribosome binding site sequence AGGAGG (Shine-Dalgarno), and a string of five A’s followed by the sequence […], that corresponds to the first 15 bp found in pbp5 from E. faecium C68 were added upstream of the START codon. The terminator sequence […] was added downstream of the STOP codon. BamHI restriction sites were added to the flanking 5′ and 3′ ends. The synthetic genes were inserted into the vector pCWR624Δpbp5. This vector was derived from pCWR624[10], in which the pbp5 gene from D366 was excised by digestion with BamHI followed by re-ligation of the vector, allowing subsequent insertion of modified synthetic pbp5s into the BamHI site downstream of ftsWEfm and psr from E. faecium C68[10]. The synthetic genes were inserted in a BamHI site located downstream of psr. The proper orientation was confirmed by PCR amplification using the forward primer OR_pbp5_FOR_1 (5′-[…]-3′) and the reverse primer OR_pbp5_REV_1 (5′-[…]-3′). Plasmids were sequence verified for the specific binding site mutations. The resulting constructions were electroporated into the natural pbp5(-) mutant E. faecium D344SRF with a selection on brain heart infusion agar (BHI) plates containing kanamycin (1500 µg/ml).
(§2) E. faecium strains were streaked fresh from −80 °C stored glycerol stocks onto brain heart infusion (BHI) agar plates and incubated for 18 h at 37 °C. Strains harboring the plasmid derivatives were grown under antibiotic pressure on agar plates containing kanamycin at 1500 µg/ml. A single colony was inoculated into BHI or BHI-kanamycin (1500 µg/ml) for overnight cultures (18 h).
(§3) Antibiotic disks used were manufactured by BD BBL^TM. Disk diffusion assays were performed according to the Clinical and Laboratory Standards Institute (CLSI) guidance. Overnight cultures were inoculated into 3 ml of BHI or BHI-kanamycin (1500 µg/ml) broth with a dilution of 1:100 and incubated until an OD600 of ~0.5 was reached. […] The plates were incubated at 37 °C and the zones of inhibition were measured after 24 h. […]

[2] = test system: E. faecium D344SRF pCWR624Δpbp5_pbp5_V4; assay: Disk diffusion assay, pbp5_V4; type: cell-based, Enterococcus faecium; conditions: strain pbp5_V4 (D530A_L533A_W457A); 37 °C, 24 h; n=3
Protocol: as §1, §2, §3

[3] = test system: E. faecium D344SRF pCWR624Δpbp5_pbp5_V5; assay: Disk diffusion assay, pbp5_V5; type: cell-based, Enterococcus faecium; conditions: strain pbp5_V5 (Q396A_E397A); 37 °C, 24 h; n=3
Protocol: as §1, §2, §3

[4] = test system: E. faecium D344SRF, Wild Type; assay: MIC by broth microdilution, Wild Type; type: cell-based, Enterococcus faecium; conditions: strain Wild Type; BHI broth microdilution, 37 °C, 20 h, read by eye; n=3
Protocol: as §2
MIC determination was performed using a standard broth microdilution technique in duplicate from independent cultures. Overnight cultures were inoculated into 3 ml of BHI or BHI-kanamycin (1500 µg/ml) broth in a dilution of 1:100 and incubated until an OD600 of ~0.5 was reached. Cultures were diluted 1:1000 and inoculated into the 96-well plates with the corresponding antibiotics to be tested. Plates were incubated at 37 °C for 20 h and read by eye. The MICs were defined as the lowest antibiotic concentration that inhibited growth.

## D-Lac-L-Ala-D-iGln-L-Lys(D-iAsn) [SP2]
PBP5-S422A; 1H DLacβ
  STD % to SP1: 42.7391%
  STD amplification factor as fraction of highest SP1:PBP5 value: 0.4274
  STD amplification factor, 2000: 11.5004
PBP5-S422A; 1H DQ2β (first listed)
  STD % to SP1: 84.4303%
  STD amplification factor as fraction of highest SP1:PBP5 value: 0.8443
  STD amplification factor, 2000: 22.7188
PBP5-S422A; 1H DQ2β (second listed)
  STD % to SP1: 106.599%
  STD amplification factor as fraction of highest SP1:PBP5 value: 1.066
  STD amplification factor, 2000: 28.6841
PBP5-S422A; 1H DQ2γ
  STD % to SP1: 33.2164%
  STD amplification factor as fraction of highest SP1:PBP5 value: 0.3322
  STD amplification factor, 2000: 8.938
PBP5-S422A; 1H K3α
  STD % to SP1: 52.4105%
  STD amplification factor as fraction of highest SP1:PBP5 value: 0.5241
  STD amplification factor, 2000: 14.1028
PBP5-S422A; 1H K3β
  STD % to SP1: 115.403%
  STD amplification factor as fraction of highest SP1:PBP5 value: 1.154
  STD amplification factor, 2000: 31.053
PBP5-S422A; 1H K3γ
  STD % to SP1: 71.5712%
  STD amplification factor as fraction of highest SP1:PBP5 value: 0.7157
  STD amplification factor, 2000: 19.2587
PBP5-S422A; 1H K3δ
  STD % to SP1: 86.8848%
  STD amplification factor as fraction of highest SP1:PBP5 value: 0.8688
  STD amplification factor, 2000: 23.3793
PBP5-S422A; 1H K3ε
  STD % to SP1: 15.5454%
  STD amplification factor as fraction of highest SP1:PBP5 value: 0.1555
  STD amplification factor, 2000: 4.183
PBP5-S422A; 1H LA1α
  STD % to SP1: 31.0506%
  STD amplification factor as fraction of highest SP1:PBP5 value: 0.3105
  STD amplification factor, 2000: 8.355
PBP5-S422A; 1H LA1β
  STD % to SP1: 44.3762%
  STD amplification factor as fraction of highest SP1:PBP5 value: 0.4438
  STD amplification factor, 2000: 11.9409
PBP5-S422A; 1H iNα,DQ2α
  STD % to SP1: 24.4286%
  STD amplification factor as fraction of highest SP1:PBP5 value: 0.2443
  STD amplification factor, 2000: 6.573
PBP5-S422A; 1H iNβ
  STD % to SP1: 38.4337%
  STD amplification factor as fraction of highest SP1:PBP5 value: 0.3843
  STD amplification factor, 2000: 10.3419

## CO/N=C(\C(=O)N[C@@H]1C(=O)N2C(C(=O)O)=C(CSc3nc(=O)c(=O)[nH]n3C)CS[C@H]12)c1csc(N)n1 [Ceftriaxone, ceftriaxone]
[1]
  Zone Size (mm) [Range]: 28 [26-28] mm
[2]
  Zone Size (mm) [Range]: 26 [26-28] mm
[3]
  Zone Size (mm) [Range]: 0 [0] mm
[4]
  MIC (µg/ml) [Range]: 50 [25-100] µg/ml
